Measured values: US20070154393A1, “Bioassay for volatile low molecular weight insecticides and methods of use” (priority 2005, published 2007)
Counter-ions that a name gives are not always drawn. Like-named read-outs stand apart in the source and are kept apart here.

What was measured:
[1] = system: insecticide-susceptible Drosophila melanogaster (Canton-S strain); type: in vivo
Experimental: The insecticide-susceptible Canton-S strain of Drosophila was obtained from the Bloomington Drosophila stock center (Indiana University, Bloomington, Ind.), and used exclusively in all studies. Flies were reared in 100-ml vials capped with acetate plugs (Fisher Scientific; Suwannee, Ga.) on a JAZZ-MIX diet (Fisher) prepared with a 2:1 ratio of water to apple juice. Flies were reared on a 12:12 photocycle at 24° C. and ambient relative humidity. Mixed-sex adults, less than 1-wk old, were used in bioassays.
Flies were briefly anesthetized in rearing vials with a pulse of CO2 and transferred to a CO2 flowbed (Genesee Scientific; San Diego, Calif.). Using a camel hair brush and a 5×5 cm sheet of rice paper, ten flies were placed into 7.0 ml dram vials. Prior to adding flies, each vial received a 0.5 cm^3 block of rearing diet that had been sufficiently dried on a paper towel to remove excessive moisture. The vials were then capped with open-top septum caps (Fisher) that were covered with fine mesh. The mesh was applied to the septum caps in advance using hot glue; it prevented fly escape but readily permitted gas exchange. The flies were allowed 1-hr to recover from the CO2 anesthesia. After one hour, single vials with flies were placed into 0.5 L glass jars, along with a filter paper tent (see FIG. 1). In a fume hood, filter paper tents were treated with insecticide dilutions or acetone for controls. The jars were then rapidly closed tightly with a metal lid. After 24 hours of exposure, mortality was scored with the aid of a magnifying glass.
All test compounds and solvents were >99% purity, and were purchased from Sigma-Aldrich Chemical (Milwaukee, Wis.). See Table 1 for a listing of the test compounds and their structures. Insecticide stock solutions were prepared at a standard concentration of 100 μg/μl in analytical grade acetone. For liquid insecticidal compounds, density in mg/μl was used to calculate weight on a per-volume basis. Stock solutions were held at −20° C. in sealed amber vials. In bioassay jars, filter paper tents were treated with stock volumes ranging from 2 to 20 μl, depending on the inherent toxicity of the test compound. These volumes of insecticide stock provided test concentrations of 200 to 2000 μg insecticide per replicate jar. A range of 4-5 concentrations plus a control were tested for each insecticide, and each range was repeated five times over at least three days. Controls received a volume of acetone identical to the highest insecticide volume that was tested (i.e., 10 μl for menthofuran; 20 μl for all other insecticides). Between uses, bioassay jars and lids were washed in a dishwasher, then baked 12-16 hr at 90° C. in a drying oven.
Probit and regression analyses were performed using the PROC PROBIT and PROC REG procedures, respectively. […] If control mortality ever exceeded 10% in a given replicate, that replicate was discarded.
(§1) Four Drosophila strains were used, all obtained from the Bloomington Drosophila Stock Center (Indiana University; Bloomington, Ind.). The Canton-S strain was used as the insecticide-susceptible standard. The Hikone-R strain is metabolically-resistant with elevated cytochrome P450 levels (Waters et al., 1984; Sundseth et al., 1989; Le Goff et al., 2003; Festucci-Buselli et al., 2005). Hikone-R is resistant to a number of insecticides, including malathion, DDT and neonicotinoids (Sundseth et al., 1989; Daborn et al., 2001). Two resistant neurological-mutant strains were also tested. […] Flies were reared in 100-ml vials capped with acetate plugs (Fisher Scientific; Suwanee, Ga.) on a commercial diet (JAZZ-MIX; Fisher Scientific). Flies were reared on a 12:12 photocycle at 24° C. and 60% relative humidity. Mixed-sex adults, less than 1-wk old, were used in bioassays.

[2] = system: metabolically-resistant Hikone-R strain of Drosophila (elevated cytochrome P450); type: in vivo; settings: for Slope ± Std. Error (probit mortality line): Hikone-R, 24 hr
Experimental: Four Drosophila strains were used, all obtained from the Bloomington Drosophila Stock Center (Indiana University; Bloomington, Ind.). The Canton-S strain was used as the insecticide-susceptible standard. […] Two resistant neurological-mutant strains were also tested. […] Flies were reared in 100-ml vials capped with acetate plugs (Fisher Scientific; Suwanee, Ga.) on a commercial diet (JAZZ-MIX; Fisher Scientific). […] Mixed-sex adults, less than 1-wk old, were used in bioassays.
All volatile insecticide stocks were prepared at 100 μg/μl in analytical grade acetone. Rather than weigh the highly volatile liquid insecticides (i.e., all compounds except benzothiophene), weight was determined based on the density-volume relationship of each compound. […] The insecticide synergists PBO (piperonyl butoxide) and DEF (SSS-tributyl-phosphoro-trithioate) were obtained from Fluka Chemical Co. (Basel, Switzerland) and Mobay Chemical Co. (Kansas City, Mo.). […] Synergist stocks were prepared at 100 μg/ml in analytical grade acetone.
Briefly, bioassays took place in 0.5-l glass jars with metal lids. Mixed-sex flies were isolated from lab colonies and placed in 4-ml dram vials in groups of ten, along with a dried piece of laboratory diet. The dram vials were capped with open-top septum caps that were covered with fine mesh (held in place by non-toxic glue). For bioassays, the assembled dram vials were placed into the 0.5-l jars along with a folded filter paper “tent” (Whatman #1; Vineland, N.J.). The filter paper was treated with either an insecticide dilution or acetone, the jar was sealed with the metal lid, and the bioassay proceeded for 24-hr at room temperature. Mortality was scored based on a complete lack of movement by the flies. Four concentrations plus an acetone control were tested for all insecticides. Between five and ten replicates were performed for each concentration range on each strain-insecticide combination. Synergist bioassays were performed with a slight modification. Synergist stocks were applied to dram vials at 100 μl per vial to provide assay concentrations of 10 μg per vial. […] After treatment, vials were held at an angle in a fume hood and rotated ¼-turn each minute until the acetone evaporated. Flies and diet were added as above and held for 1-hr. Assays were initiated, run, and scored as above.
Probit analysis was performed using PROC PROBIT in the SAS software package (SAS Institute; Cary, N.C.). If control mortality ever exceeded 10% in a given replicate, that replicate was discarded.

[3] = system: Rd1 (Rdl-R) strain of Drosophila (GABA-gated chloride channel point mutation); type: in vivo, Drosophila melanogaster
Source text: as §1
All experimental materials were purchased from Sigma-Aldrich-Fluka (Milwaukee, Wis.) and were of 99% purity or greater. […] All volatile insecticide stocks were prepared at 100 μg/μl in analytical grade acetone. Rather than weigh the highly volatile liquid insecticides (i.e., all compounds except benzothiophene), weight was determined based on the density-volume relationship of each compound. Four serial dilutions were prepared and tested for each insecticide as described previously (Scharf et al., 2006). The insecticide synergists PBO (piperonyl butoxide) and DEF (SSS-tributyl-phosphoro-trithioate) were obtained from Fluka Chemical Co. (Basel, Switzerland) and Mobay Chemical Co. (Kansas City, Mo.). Both synergists were >95% purity. Synergist stocks were prepared at 100 μg/ml in analytical grade acetone.
Volatility bioassays were conducted exactly as described in a previous report (Scharf et al., 2006). Briefly, bioassays took place in 0.5-l glass jars with metal lids. Mixed-sex flies were isolated from lab colonies and placed in 4-ml dram vials in groups of ten, along with a dried piece of laboratory diet. The dram vials were capped with open-top septum caps that were covered with fine mesh (held in place by non-toxic glue). For bioassays, the assembled dram vials were placed into the 0.5-l jars along with a folded filter paper “tent” (Whatman #1; Vineland, N.J.). The filter paper was treated with either an insecticide dilution or acetone, the jar was sealed with the metal lid, and the bioassay proceeded for 24-hr at room temperature. Mortality was scored based on a complete lack of movement by the flies. Four concentrations plus an acetone control were tested for all insecticides. Between five and ten replicates were performed for each concentration range on each strain-insecticide combination. Synergist bioassays were performed with a slight modification. Synergist stocks were applied to dram vials at 100 μl per vial to provide assay concentrations of 10 μg per vial. […] After treatment, vials were held at an angle in a fume hood and rotated ¼-turn each minute until the acetone evaporated. Flies and diet were added as above and held for 1-hr. Assays were initiated, run, and scored as above.
Probit analysis was performed using PROC PROBIT in the SAS software package (SAS Institute; Cary, N.C.). If control mortality ever exceeded 10% in a given replicate, that replicate was discarded. Toxicity and synergist ratios at LC50 were compared statistically using the calculation described by Robertson and Preisler (1992). Using this procedure, ratios with 95% confidence intervals were calculated using a spreadsheet-based program. With this calculation, if confidence intervals include 1.0 then ratios are considered non-significant (p>0.05; Robertson and Preisler, 1992).

[4] = solvent carriers tested alone under optimized bioassay conditions
[5] = significance at p<0.05, method of Robertson and Preisler

Cc1oc2ccccc2c1C
LC50 (95% CL) ([1]; in vivo): 1960.0 (1543.0 − 2452.0) μg/jar

CCCCOC(=O)CC [BUTYL propionate, butyl propionate]
LC50 (95% CL) ([1]; in vivo): 2126.0 (1894.0 − 2670.0) μg/jar

C[S+](C)[O-] [DMSO]
mortality elicited by solvent carrier [1, 4]: No mortality

COP(=O)(OC)OC=C(Cl)Cl [Dichlorvos (DDVP), Dichlorvos, reference compound]
Slope ± Std. Error (probit mortality line) ([2]; Table 2): 4.64 ± 0.59

O=COCCOC=O [EGDF, ethylene glycol di-formate]
knockdown ([1]; Canton-S, by 2-hr, lasting through 24-hr, in all bioassay replicates): 100% | Slope ± Std. Error (probit mortality line) ([2]; Table 2): 5.02 ± 2.41 | Slope ± Std. Error (probit mortality line) ([2]; Table 3, no synergist): 5.02 ± 2.41 | response of Hikone-R relative to Canton-S (LC50 ratio Hikone÷Canton, FIG. 5), in words [2, 5]: significant resistance

CCOC(C)=O [ETHYL acetate, ethyl acetate]
LC50 (95% CL) ([1]; in vivo): 3530.0 (2488.0 − 12723.0) μg/jar

CCCC(=O)OCC [ETHYL butyrate, ethyl butyrate]
LC50 (95% CL) ([1]; in vivo): 2034.0 (ND) μg/jar

CCOC(=O)CC [ETHYL propionate, ethyl propionate]
LC50 (95% CL) ([1]; in vivo): 3395.0 (2439.0 − 9039.0) μg/jar

CCCCC(=O)OCC [ETHYL valerate, ethyl valerate]
LC50 (95% CL) ([1]; in vivo): 2092.0 (1837.0 − 2670.0) μg/jar

O=CO [Formic Acid, reference compound]
Slope ± Std. Error (probit mortality line) ([2]; Table 2): 3.29 ± 1.02

CCCCCCOC(C)=O [HEXYL acetate, hexyl acetate]
LC50 (95% CL) ([1]; in vivo): 1666.0 (1582.0 − 1755.0) μg/jar

CCCCCCCOC=O [Heptyl Formate, heptyl formate]
LC50 ([2]; in vivo): 1483.0 μg insecticide per 0.5 liter of headspace | response of Hikone-R relative to Canton-S (LC50 ratio Hikone÷Canton, FIG. 5), in words ([2]; in vivo): non-significant tolerance | LC50 ([3]; in vivo): 1656.6 μg insecticide per 0.5 liter of headspace | response of Rd1 relative to Canton-S (LC50 ratio, FIG. 7A), in words [3, 5]: non-significant tolerance

c1ccc2[nH]ccc2c1 [INDOLE, indole]
LC50 (95% CL) ([1]; in vivo): 2769.0 (2137.0 − 7873.0) μg/jar

CC(=O)OC(C)C [ISO-PROPYL acetate, iso-propyl acetate]
LC50 (95% CL) ([1]; in vivo): 1611.0 (1458.0 − 1782.0) μg/jar

CCCC(=O)OC [METHYL butyrate, methyl butyrate]
LC50 (95% CL) ([1]; in vivo): 2026.0 (1872.0 − 2314.0) μg/jar

CCC(=O)OC [METHYL propionate, methyl propionate]
LC50 (95% CL) ([1]; in vivo): 2391.0 (2076.0 − 3433.0) μg/jar

CCCCC(=O)OC [METHYL valerate, methyl valerate]
LC50 (95% CL) ([1]; in vivo): 2209.0 (1897.0 − 2997.0) μg/jar

CN=C=S [Methylisothiocyanate (MITC), Methylisothiocyanate, reference compound]
Slope ± Std. Error (probit mortality line) ([2]; Table 2): 4.30 ± 0.62 | response of Hikone-R relative to Canton-S (LC50 ratio Hikone÷Canton, FIG. 5), in words [2, 5]: significantly enhanced susceptibility

CCCCCOC(C)=O [PENTYL acetate, pentyl acetate]
LC50 (95% CL) ([1]; in vivo): 1792.0 (1658.0 − 1987.0) μg/jar

CCCOC(C)=O [PROPYL acetate, propyl acetate]
LC50 (95% CL) ([1]; in vivo): 2056.0 (ND) μg/jar

CCCOC(=O)CCC [PROPYL butyrate, propyl butyrate]
LC50 (95% CL) ([1]; in vivo): 2035.0 (ND) μg/jar

CCCOC(=O)CC [PROPYL propionate, propyl propionate]
LC50 (95% CL) ([1]; in vivo): 1931.0 (ND) μg/jar

CC(C)=O [acetone]
mortality elicited by solvent carrier [1, 4]: No mortality

CCO [ethanol]
mortality elicited by solvent carrier ([1]; in vivo): No mortality

CCCCCC [hexane]
mortality elicited by solvent carrier ([1]; in vivo): No mortality

CC(C)O [isopropanol]
mortality elicited by solvent carrier [1, 4]: 100%

CO [methanol]
mortality elicited by solvent carrier [1, 4]: No mortality

COCCO [methyl cellosolve]
mortality elicited by solvent carrier [1, 4]: No mortality

CCCCOC(C)=O [n-BUTYL acetate, n-butyl acetate]
LC50 (95% CL) ([1]; in vivo): 1821.0 (1730.0 − 1930.0) μg/jar

CC(=O)OC(C)(C)C [t-BUTYL acetate, t-butyl acetate]
LC50 (95% CL) ([1]; in vivo): 2134.0 (1943.0 − 2598.0) μg/jar

methyl acetate
Slope ± Std. Error (best-fit probit mortality line) ([1]; Table 1, Canton-S, 24 hr exposure, probit analysis): 2.86 ± 0.91 | LC50 (95% CL) ([1]; in vivo): 2268.0 (ND) μg/jar
